From patent EP0973746B1, “SUBSTITUTED 3-CYANO QUINOLINES” (Wyeth Holdings Corporation, priority 1997, dated 1998)
Converted amounts (≈) assume the structure as drawn. Where two headings read alike, the source gives them in different places.

Legend:
A431 [1] = test: Inhibition of cell growth by incorporation of [3H]-thymidine, A431; type: cell-based, human; settings: Homo sapiens
Protocol: (§1) Representative compounds of this invention were evaluated for their ability to inhibit the growth of the cell lines described below in vitro. The inhibition is quantitated by measuring the decrease in the incorporation of radio-labeled thymidine when the cells are grown in the presence of the inhibitor. […] Cells were routinely grown in a humidified incubator in 5% CO2 in air.
(§2) Cells were seeded at 10,000 cells/well in 96 well plates in complete media and allowed to grow to log phase. At this stage the complete media was replaced with media containing 0.5% FBS (for cells growing in 10% FBS) or media lacking epidermal growth factor (EGF) (for cells growing in serum free media). […] Media with test compound was then removed and complete media was added back. The cells were allowed to grow for 18 hours. This is followed by incubation in [^3H]thymidine (1mCi/ml in serum/EGF media) for 4 hours. Cells were lysed in 0.5 M NaOH for at least 30 min at 37°C and radioactivity analyzed.
(§3) The % inhibition of the compound evaluated was determined for at least three different concentrations and the IC50 value evaluated from the dose response curve. […] CPM(control) is in units of counts per minute and is a number expressing the amount of [^3H]thymidine incorporated onto the DNA when cells are grown in the absence of test compound as measured by liquid scintillation counting.

NHEK = test: Inhibition of cell growth by incorporation of [3H]-thymidine, NHEK; type: cell-based, human; settings: Homo sapiens, read-out: IC50 NHEK
Protocol: as §1, §2, §3

HTB161 = test: Inhibition of cancer cell growth as measured by cell number, HTB161; type: cell-based; settings: Homo sapiens, read-out: IC50 HTB161
A27805 = test: Inhibition of cancer cell growth as measured by cell number, A27805; type: cell-based; settings: Homo sapiens, read-out: IC50 A27805
A2780DDP = test: Inhibition of cancer cell growth as measured by cell number, A2780DDP; type: cell-based; settings: Homo sapiens, read-out: IC50 A2780DDP
MIP = test: Inhibition of cancer cell growth as measured by cell number, MIP; type: cell-based; settings: Homo sapiens; cell number, Sulforhodamine B, 48 hours exposure; Table 4; read-out: IC50 MIP
SW620 = test: Inhibition of cancer cell growth as measured by cell number, SW620; type: cell-based, human; settings: Homo sapiens, SW-620, 48 h;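 further: SW620 was included as a cell line with little or no EGFR or HER2/neu expression, in contrast to receptor-overexpressing lines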
Description: (§4) The cell lines were chosen since they overexpressed epidermal growth factor receptor (EGFR) (i.e. A431) or HER2/neu (SKBR3), or had little to no expression of the these receptors (SW620, LOX, MCF7).

COLO205 = test: Inhibition of cancer cell growth as measured by cell number, COLO205; type: cell-based; settings: Homo sapiens, read-out: IC50 COLO205
CX1 = test: Inhibition of cancer cell growth as measured by cell number, CX1; type: cell-based; settings: Homo sapiens, read-out: IC50 CX1
CACO2 = test: Inhibition of cancer cell growth as measured by cell number, CACO2; type: cell-based; settings: Homo sapiens, read-out: IC50 CACO2
HCT15 = test: Inhibition of cancer cell growth as measured by cell number, HCT15; type: cell-based; settings: Homo sapiens, read-out: IC50 HCT15
LS174T = test: Inhibition of cancer cell growth as measured by cell number, LS174T; type: cell-based; settings: Homo sapiens
SW948 = test: Inhibition of cancer cell growth as measured by cell number, SW948; type: cell-based; settings: Homo sapiens, read-out: IC50 SW948
CCL228 = test: Inhibition of cancer cell growth as measured by cell number, CCL228; type: cell-based; settings: Homo sapiens, read-out: IC50 CCL228
MCF7 = test: Inhibition of cancer cell growth as measured by cell number, MCF7; type: cell-based, human; settings: Homo sapiens, MCF7, 48 h;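 further: MCF7 was included as a line with little or no EGFR or HER2/neu expression, in contrast to the receptor-overexpressing lines of the panel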
Description: as §4

B7474 = test: Inhibition of cancer cell growth as measured by cell number, B7474; type: cell-based; settings: Homo sapiens, read-out: IC50 B7474
T47D = test: Inhibition of cancer cell growth as measured by cell number, T47D; type: cell-based; settings: Homo sapiens
LX1 = test: Inhibition of cancer cell growth as measured by cell number, LX1; type: cell-based; settings: Homo sapiens, read-out: IC50 LX1
A549 = test: Inhibition of cancer cell growth as measured by cell number, A549; type: cell-based; settings: Homo sapiens, read-out: IC50 A549
LOX = test: Inhibition of cancer cell growth as measured by cell number, LOX; type: cell-based, human; settings: Homo sapiens, LOX, 48 h;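 further: LOX cells served as a line with low or absent EGFR and HER2/neu expression, in contrast to receptor-overexpressing lines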
Description: as §4

A431 [2] = test: Inhibition of cancer cell growth as measured by cell number, A431; type: cell-based, human; settings: Homo sapiens, A-431, 48 h;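 further: human A431 line, picked because it overexpresses epidermal growth factor receptor (EGFR)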
Description: as §4

NEC = test: Inhibition of cancer cell growth as measured by cell number, NEC; type: cell-based; settings: Homo sapiens, read-out: IC50 NEC
DU145 = test: Inhibition of cancer cell growth as measured by cell number, DU145; type: cell-based; settings: Homo sapiens, read-out: IC50 DU145
PC3 = test: Inhibition of cancer cell growth as measured by cell number, PC3; type: cell-based; settings: Homo sapiens, read-out: IC50 PC3
LNCAP = test: Inhibition of cancer cell growth as measured by cell number, LNCAP; type: cell-based; settings: Homo sapiens
HL60 = test: Inhibition of cancer cell growth as measured by cell number, HL60; type: cell-based; settings: Homo sapiens, read-out: IC50 HL60
CCRF-CFM = test: Inhibition of cancer cell growth as measured by cell number, CCRF-CFM; type: cell-based; settings: Homo sapiens, read-out: IC50 CCRF-CFM
SKBR3 [3] = test: Inhibition of cancer cell growth as measured by cell number, SKBR3; type: cell-based, human; settings: Homo sapiens;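 further: SK-BR-3 cells were selected as a line overexpressing HER2/neu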
Description: as §4

[4] = test system: human epidermoid tumors (A431); test: In vivo inhibition of the growth of human epidermoid tumors (A431); settings: 80 mg/kg administered on days 1, 5, and 9, IP
In short: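 Female BALB/c nu/nu mice from Charles River were injected subcutaneously with 5 X 10^6 human epidermoid (A431) tumor cells. Once tumors weighed 100 to 150 mg, animals were randomized into treatment groups on day zero, and untreated controls were included. Tumor mass, calculated as (length X width^2)/2, was measured every 7 days for 28 days after staging. Relative growth was mean mass on days 7, 14, 21 and 28 divided by the day-zero mean.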

[5] = target: recombinant human MEK 1 (MAPKK) and recombinant human ERK2 (MAPK); test: Mitogen Activated Protein Kinase (MAPK) assay, two component coupled MEK 1 / ERK2; type: biochemical; settings: separate entries for the same compound = evaluated more than one time;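 further: MEK 1-activated ERK2 phosphorylates MBP or Myc peptide with 33P-ATP, filter capture and scintillation counting, inhibitor preincubated with ERK2 30 min at 0 °C, inhibition relative to uninhibited control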
[6] = target: epidermal growth factor receptor kinase (Homo sapiens, UniProt P00533); test: biochemical
SKBR3 [7] = test: Inhibition of cell growth by incorporation of [3H]-thymidine, SKBR3; type: cell-based, human; settings: Homo sapiens, SK-BR-3, [3H]-thymidine incorporation
Protocol: as §1, §2, §3

[8] = cell number, Sulforhodamine B, 48 hours exposure, Table 4
[9] = cell number, Sulforhodamine B, 48 hours exposure, Table 6

Sequence of epidermal growth factor receptor kinase (P00533 25-1210): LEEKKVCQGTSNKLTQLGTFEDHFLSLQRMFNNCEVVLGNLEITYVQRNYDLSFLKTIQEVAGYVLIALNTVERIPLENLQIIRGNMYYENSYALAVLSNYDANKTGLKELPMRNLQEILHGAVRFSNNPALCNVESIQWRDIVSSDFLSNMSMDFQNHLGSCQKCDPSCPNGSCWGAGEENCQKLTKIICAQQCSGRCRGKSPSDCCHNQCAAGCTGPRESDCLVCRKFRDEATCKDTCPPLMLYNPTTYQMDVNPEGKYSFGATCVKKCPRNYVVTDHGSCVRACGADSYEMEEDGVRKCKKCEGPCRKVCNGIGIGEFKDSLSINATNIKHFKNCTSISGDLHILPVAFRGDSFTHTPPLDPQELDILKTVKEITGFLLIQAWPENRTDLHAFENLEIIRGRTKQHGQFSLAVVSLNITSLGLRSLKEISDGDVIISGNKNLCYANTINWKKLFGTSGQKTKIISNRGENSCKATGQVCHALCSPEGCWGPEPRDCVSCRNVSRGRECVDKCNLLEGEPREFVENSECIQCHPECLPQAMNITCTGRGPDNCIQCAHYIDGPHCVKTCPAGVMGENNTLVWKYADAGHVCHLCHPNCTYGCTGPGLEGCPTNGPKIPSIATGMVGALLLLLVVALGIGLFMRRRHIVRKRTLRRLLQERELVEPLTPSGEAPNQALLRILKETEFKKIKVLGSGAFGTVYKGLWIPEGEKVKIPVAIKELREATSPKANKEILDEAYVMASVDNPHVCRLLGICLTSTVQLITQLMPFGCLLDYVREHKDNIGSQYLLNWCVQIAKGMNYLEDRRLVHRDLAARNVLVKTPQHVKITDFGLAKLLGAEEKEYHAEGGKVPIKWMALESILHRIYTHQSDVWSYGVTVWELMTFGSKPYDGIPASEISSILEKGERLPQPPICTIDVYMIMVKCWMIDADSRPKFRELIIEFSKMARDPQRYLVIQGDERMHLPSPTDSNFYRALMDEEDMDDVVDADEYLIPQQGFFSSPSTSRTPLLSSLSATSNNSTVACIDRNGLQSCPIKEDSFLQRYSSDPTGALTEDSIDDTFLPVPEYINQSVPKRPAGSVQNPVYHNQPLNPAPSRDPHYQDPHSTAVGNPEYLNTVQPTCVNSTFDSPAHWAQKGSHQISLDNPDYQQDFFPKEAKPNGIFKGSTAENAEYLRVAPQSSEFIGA

C=CC(=O)Nc1ccc2ncc(C#N)c(Nc3cccc(Br)c3)c2c1 [Example 18, N-[4-[(3-Bromophenyl)amino]-3-cyano-6-quinolinyl]-2-propenamide]
IC50 (A431 [1]; A-431, read-out: IC50 A431): 0.01 nM | IC50 (NHEK): 7 nM | IC50 (HTB161; 48 h): 0.415 µg/mL (≈ 1.05 µM) | IC50 (A27805; 48 h): 0.628 µg/mL (≈ 1.6 µM) | IC50 (A2780DDP; 48 h): 0.884 µg/mL (≈ 2.25 µM) | IC50 (MIP): 1.47 µg/mL (≈ 3.74 µM) | IC50 (SW620; read-out: IC50 SW620, cell number, Sulforhodamine B, 48 hours exposure, Table 4): 1.4 µg/mL (≈ 3.55 µM) | IC50 (COLO205; COLO 205, 48 h): 1.9 µg/mL (≈ 4.84 µM) | IC50 (CX1; CX-1, 48 h): 1.56 µg/mL (≈ 3.97 µM) | IC50 (CACO2; Caco-2, 48 h): 0.576 µg/mL (≈ 1.46 µM) | IC50 (HCT15; HCT-15, 48 h): 1.67 µg/mL (≈ 4.25 µM) | IC50 (LS174T; 48 h, read-out: IC50 LS174T): 1.59 µg/mL (≈ 4.05 µM) | IC50 (SW948; SW948, 48 h): 1.94 µg/mL (≈ 4.93 µM) | IC50 (CCL228; 48 h): 1.17 µg/mL (≈ 2.98 µM) | IC50 (MCF7; read-out: IC50 MCF7, cell number, Sulforhodamine B, 48 hours exposure, Table 5): 2.17 µg/mL (≈ 5.52 µM) | IC50 (B7474; 48 h): 0.152 µg/mL (≈ 0.387 µM) | IC50 (T47D; 48 h, read-out: IC50 T47D): 1.31 µg/mL (≈ 3.34 µM) | IC50 (LX1; LX-1, 48 h): 1.12 µg/mL (≈ 2.84 µM) | IC50 (A549; A549, 48 h): 1.61 µg/mL (≈ 4.1 µM) | IC50 (LOX; read-out: IC50 LOX, cell number, Sulforhodamine B, 48 hours exposure, Table 6): 0.0851 µg/mL (≈ 0.216 µM) | IC50 (A431 [2]; read-out: IC50 A431, cell number, Sulforhodamine B, 48 hours exposure, Table 6): 0.249 µg/mL (≈ 0.633 µM) | IC50 (NEC; 48 h): 1.41 µg/mL (≈ 3.6 µM) | IC50 (DU145; DU-145, 48 h): 0.322 µg/mL (≈ 0.818 µM) | IC50 (PC3; PC-3, 48 h): 2.35 µg/mL (≈ 5.97 µM) | IC50 (LNCAP; 48 h, read-out: IC50 LNCAP): 0.146 µg/mL (≈ 0.372 µM) | IC50 (HL60; HL-60, 48 h): 1.43 µg/mL (≈ 3.63 µM) | IC50 (CCRF-CFM; 48 h): 1.04 µg/mL (≈ 2.64 µM) | IC50 (SKBR3 [3]; SK-BR-3, 48 h, read-out: IC50 SKBR3, cell number, Sulforhodamine B, 48 hours exposure, Table 7): 1.85 µg/mL (≈ 4.71 µM) | reduced tumor size ([4]; day 7): 29% | reduced tumor size ([4]; day 14, p <0.01): 45% | Tumor growth versus control ([4]; days 21 and 28): not reduced versus control | IC50 [5]: > 100000 nM | IC50 [6]: 0.021 nM

COc1cc2ncc(C#N)c(Nc3cccc(Br)c3)c2cc1OC [Example 31, 4-[(3-Bromophenyl)amino]-6,7-dimethoxy-3-quinolinecarbonitrile]
IC50 (A431 [1]; A-431, [3H]-thymidine incorporation, A431, read-out: IC50 A431): 200 nM | IC50 (NHEK; [3H]-thymidine incorporation): 3 nM | IC50 (SKBR3 [7]): 25000 nM | IC50 (HTB161; [8]): 0.793 µg/mL (≈ 2.06 µM) | IC50 (A27805; [8]): 2.03 µg/mL (≈ 5.28 µM) | IC50 (A2780DDP; [8]): 1.17 µg/mL (≈ 3.03 µM) | IC50 (MIP): 0.748 µg/mL (≈ 1.95 µM) | IC50 (SW620; cell number, Sulforhodamine B, 48 hours exposure, Table 4, read-out: IC50 SW620): 4.54 µg/mL (≈ 11.8 µM) | IC50 (SW620; cell number, Sulforhodamine B, 48 hours exposure, Table 8, read-out: IC50 SW620): 0.82 µg/mL (≈ 2.13 µM) | IC50 (COLO205; COLO 205, cell number, Sulforhodamine B, 48 hours exposure, Table 4): 3.1 µg/mL (≈ 8.06 µM) | IC50 (CX1; CX-1, cell number, Sulforhodamine B, 48 hours exposure, Table 4): 0.97 µg/mL (≈ 2.52 µM) | IC50 (CACO2; Caco-2, cell number, Sulforhodamine B, 48 hours exposure, Table 5): 0.925 µg/mL (≈ 2.41 µM) | IC50 (HCT15; HCT-15, cell number, Sulforhodamine B, 48 hours exposure, Table 5): 0.727 µg/mL (≈ 1.89 µM) | IC50 (LS174T; cell number, Sulforhodamine B, 48 hours exposure, Table 5, read-out: IC50 LS174T): 0.885 µg/mL (≈ 2.3 µM) | IC50 (SW948; SW948, cell number, Sulforhodamine B, 48 hours exposure, Table 5): 5.48 µg/mL (≈ 14.3 µM) | IC50 (CCL228; cell number, Sulforhodamine B, 48 hours exposure, Table 5): 4.91 µg/mL (≈ 12.8 µM) | IC50 (MCF7; cell number, Sulforhodamine B, 48 hours exposure, Table 5, read-out: IC50 MCF7): 5.66 µg/mL (≈ 14.7 µM) | IC50 (MCF7; cell number, Sulforhodamine B, 48 hours exposure, Table 8, read-out: IC50 MCF7): 6.04 µg/mL (≈ 15.7 µM) | IC50 (B7474; [9]): 1.58 µg/mL (≈ 4.1 µM) | IC50 (T47D; cell number, Sulforhodamine B, 48 hours exposure, Table 6, read-out: IC50 T47D): 3.33 µg/mL (≈ 8.67 µM) | IC50 (LX1; LX-1, cell number, Sulforhodamine B, 48 hours exposure, Table 6): 6.88 µg/mL (≈ 17.9 µM) | IC50 (A549; A549, cell number, Sulforhodamine B, 48 hours exposure, Table 6): 2.27 µg/mL (≈ 5.91 µM) | IC50 (LOX; cell number, Sulforhodamine B, 48 hours exposure, Table 6, read-out: IC50 LOX): 0.871 µg/mL (≈ 2.27 µM) | IC50 (LOX; cell number, Sulforhodamine B, 48 hours exposure, Table 8, read-out: IC50 LOX): 1.65 µg/mL (≈ 4.29 µM) | IC50 (A431 [2]; cell number, Sulforhodamine B, 48 hours exposure, Table 6, read-out: IC50 A431): 0.434 µg/mL (≈ 1.13 µM) | IC50 (A431 [2]; cell number, Sulforhodamine B, 48 hours exposure, Table 8, read-out: IC50 A431): 0.1 µg/mL (≈ 0.26 µM) | IC50 (NEC; [9]): 2.23 µg/mL (≈ 5.81 µM) | IC50 (DU145; DU-145, cell number, Sulforhodamine B, 48 hours exposure, Table 7): 0.585 µg/mL (≈ 1.52 µM) | IC50 (PC3; PC-3, cell number, Sulforhodamine B, 48 hours exposure, Table 7): 5.16 µg/mL (≈ 13.4 µM) | IC50 (LNCAP; cell number, Sulforhodamine B, 48 hours exposure, Table 7, read-out: IC50 LNCAP): 0.772 µg/mL (≈ 2.01 µM) | IC50 (HL60; HL-60, cell number, Sulforhodamine B, 48 hours exposure, Table 7): 0.894 µg/mL (≈ 2.33 µM) | IC50 (CCRF-CFM; cell number, Sulforhodamine B, 48 hours exposure, Table 7): 3.19 µg/mL (≈ 8.3 µM) | IC50 (SKBR3 [3]; SK-BR-3, cell number, Sulforhodamine B, 48 hours exposure, Table 8, read-out: IC50 SKBR3): 0.48 µg/mL (≈ 1.25 µM) | IC50 [6]: 1.5 nM
